In patent US10905665B2, “Chemical modulators of signaling pathways and therapeutic use” (Duke University, priority 2015, dated 2021):
Like-named read-outs stand apart in the source and are kept apart here.

Experiments:
Assay type in all cases: cell-based
[1] = target: T1, Frizzled1-GFP (Homo sapiens, UniProt Q9UP38); test: Frizzled internalization assay (Fzd1-GFP); design: key: Punctate similar to control=0; trace amount of punctate greater than control=1; moderate=3; strong=5; conditions: 6 hours, 0-5 point scale
T1 construct: expressed in transfected cells
T1 sequence (Q9UP38 70-647): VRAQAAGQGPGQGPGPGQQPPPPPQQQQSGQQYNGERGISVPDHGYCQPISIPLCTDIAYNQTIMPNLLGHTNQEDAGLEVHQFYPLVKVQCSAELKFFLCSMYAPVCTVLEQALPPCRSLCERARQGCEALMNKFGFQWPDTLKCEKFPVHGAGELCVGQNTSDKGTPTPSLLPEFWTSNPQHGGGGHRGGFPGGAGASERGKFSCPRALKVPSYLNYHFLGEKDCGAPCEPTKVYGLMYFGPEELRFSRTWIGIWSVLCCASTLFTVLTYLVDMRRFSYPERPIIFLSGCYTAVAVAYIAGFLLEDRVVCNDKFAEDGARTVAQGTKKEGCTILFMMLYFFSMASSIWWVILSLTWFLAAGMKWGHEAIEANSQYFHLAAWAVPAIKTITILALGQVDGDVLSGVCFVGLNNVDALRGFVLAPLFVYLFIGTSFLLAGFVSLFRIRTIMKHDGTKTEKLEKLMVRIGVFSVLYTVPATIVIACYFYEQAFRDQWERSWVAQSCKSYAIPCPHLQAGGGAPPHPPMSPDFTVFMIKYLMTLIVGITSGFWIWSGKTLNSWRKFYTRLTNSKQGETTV
Method: The Fzd1-GFP assay was performed following a procedure similar to previously published work (Chen, M. Y.; Wang, J. B.; Lu, J. Y.; Bond, M. C.; Ren, X. R.; Lyerly, H. K.; Barak, L. S.; Chen, W. Biochemistry 2009, 48, 10267). Cells stably expressing Frizzled1-GFP plated in confocal dishes were treated, after 24 hours, with 12.5 μM of test compound or DMSO for 6 hours at 37° C. followed by fixation with 4% paraformaldehyde. The cells were then examined by microscopy using a LSM 510-Meta confocal microscope (Carl Zeiss, Thornwood, N.Y., USA) equipped with 40× and 100× apo chromat objectives. YFP was excited using a 488-nm argon laser line. Images were processed using the LSM software Image Browser (CarlZeiss, Thornwood, N.Y., USA). Plates were read twice in blinded fashion using a 0-5 point scale. ^aPunctate similar to control=0, trace amount of punctate greater than control=1, moderate=3, strong=5.

[2] = system: Wnt/β-catenin transcription; test: Wnt-3A-stimulated TOPFlash reporter assay in HEK293 cells; conditions: for IC50: Wnt-3A conditioned medium, 8 hour treatment, read-out: Inhibition Wnt/β-catenin transcription TopFlash IC50
Method: Stably transfected cells were seeded in 100 μl of cell growth medium/well in 96-well plates at 100% confluency. Fifty microliters of Wnt-3A conditioned medium containing the chemical compounds to be tested or DMSO was added to each well. After an 8 hour treatment, the cells were washed once with PBS and lysed with 55 μl of Passive Lysis Buffer supplied in the Dual-Luciferase Reporter Assay kit (Promega, Madison, Wis.). Twenty-five microliters of cell lysate was used for measuring luciferase activity in a 96-well plate reader (FluoStar Optima, BMG Labtech, Chicago, Ill.). Data were fit using GraphPad Prism (mean±SEM, n>=2).

[3] = system: β-catenin; test: Western blot of cytosolic β-catenin in HCT-116 cells; conditions: Homo sapiens, HCT-116, 18 h, 2.0 μM compound, read-out: Remaining cytosolic β-catenin
Method: Western blots were performed following a procedure similar to previously published work (Osada, T.; Chen, M. Y.; Yang, X. Y.; Spasojevic, I.; Vandeusen, J. B.; Hsu, D.; Clary, B. M.; Clay, T. M.; Chen, W.; Morse, M. A.; Lyerly, H. K. Cancer Research 2011, 71, 4172). HCT-116 cells were grown to about 80% confluency in poly-D-lysine coated six-well plates 48 hours before treatment and followed by 2.0 μM compounds or DMSO incubation for 18 hours in growth medium. After treatment, the cytosolic fraction was isolated as described (Osada, T.; Chen, M. Y.; Yang, X. Y.; Spasojevic, I.; Vandeusen, J. B.; Hsu, D.; Clary, B. M.; Clay, T. M.; Chen, W.; Morse, M. A.; Lyerly, H. K. Cancer Research 2011, 71, 4172). Immunoblots using antibodies to […] (E-5, Santa Cruz Biotechnology catalog number sc-7963) was used to detect β-catenin protein levels in the cytosol, and immunoblots using antibodies to β-actin (C-4, Santa Cruz Biotechnology, catalog number SC-47778) was used for loading controls.
Inhibition of Wnt signaling was determined by analyzing the reduction of cytosolic β-catenin by Western blot (FIG. 1, 2).

[4] = system: colon cancer cell line HCT116; test: Cell proliferation assay (MTS)
Method: The colon cancer cell line HCT116 was used in the cell proliferation assay. The cells were plated in 100 μl of growing medium/well in 96-well plates at 5,000 cells per well and treated with compounds from 0.04 to 10 μM for 72 hours, after which point the cells were analyzed by colorimetric MTS assay (Promega, Madison, Wis., USA). Data were fit using GraphPad Prism (mean±SEM, n 3).

SMILES | Fzd1-GFP internalization @12.5 μM [1] | IC50 ([2]; Homo sapiens, HEK293, 8 h) | also measured
O=C(Nc1cc(Cl)ccc1Cl)c1cc(Cl)ccc1O [Compound 15, 5-chloro-N-(2,5-dichlorophenyl)-2-hydroxybenzamide] | 5 | 0.75 ± 0.13 µM | –
O=C(Nc1ccc(F)cc1F)c1cc(Cl)ccc1O [Compound 20, 5-chloro-N-(2,4-difluorophenyl)-2-hydroxybenzamide] | 2 | 4.02 ± 0.79 µM | –
O=C(Nc1ccc(Cl)c(Cl)c1)c1cc(Cl)ccc1O [Compound 17, 5-chloro-N-(3,4-dichlorophenyl)-2-hydroxybenzamide] | 5 | – | IC50 ([2]; Homo sapiens, HEK293): 0.73 ± 0.13 µM
CC(=O)Oc1ccc(Cl)cc1C(=O)Nc1ccc(C(F)(F)F)cc1Cl [Compound 59, 4-Chloro-2-((2-chloro-4-(trifluoromethyl)phenyl)carbamoyl)phenyl acetate] | 5 | – | IC50 ([2]; Homo sapiens, HEK293): 0.32 ± 0.03 µM
O=C(Nc1cccc(C(F)(F)F)c1)c1cc(Cl)ccc1O [Compound 9, 5-chloro-2-hydroxy-N-(3-(trifluoromethyl)phenyl)benzamide] | 5 | 0.89 ± 0.32 µM | –
O=C(NC(=O)c1cc(Cl)ccc1O)c1ccc(C(F)(F)F)cc1 [Compound 57, 5-Chloro-2-hydroxy-N-(4-(trifluoromethyl)benzoyl)benzamide] | 0 | > 12 µM | –
O=C(Nc1ccc(Cl)cc1Cl)c1cc(Cl)ccc1O [Compound 14, 5-chloro-N-(2,4-dichlorophenyl)-2-hydroxybenzamide] | 5 | 0.42 ± 0.1 µM | activity at 2 µM [3]: 7%; IC50 ([4]; Homo sapiens, HCT-116, HCT116, 72 hours, 0.04 to 10 μM, read-out: Anti-proliferation IC50 (μM), MTS assay): 1.18 ± 0.14 µM
O=C(Nc1ccc(F)c(Cl)c1)c1cc(Cl)ccc1O [Compound 23, 5-chloro-N-(3-chloro-4-fluorophenyl)-2-hydroxybenzamide] | 5 | 1.21 ± 0.17 µM | –
O=C(Nc1ccccc1Cl)c1cc(Cl)ccc1O [Compound 13, 5-chloro-N-(2-chlorophenyl)-2-hydroxybenzamide] | 1 | 3.05 ± 0.87 µM | –
CS(=O)(=O)c1ccc(NC(=O)c2cc(Cl)ccc2O)c(Cl)c1 [Compound 5, 5-chloro-N-(2-chloro-4-(methylsulfonyl)phenyl)-2-hydroxybenzamide] | 0 | 7.66 µM | –
O=C(NCc1ccc(C(F)(F)F)cc1)c1cc(Cl)ccc1O [Compound 25, 5-chloro-2-hydroxy-N-(4-(trifluoromethyl)benzyl)benzamide] | 0 | 15.1 ± 1.4 µM | –
O=C(Nc1ccc(F)cc1Cl)c1cc(Cl)ccc1O [Compound 22, 5-chloro-N-(2-chloro-4-fluorophenyl)-2-hydroxybenzamide] | 3 | 1.41 ± 0.21 µM | –
O=C(Nc1cc(Cl)cc(Cl)c1)c1cc(Cl)ccc1O [Compound 16, 5-chloro-N-(3,5-dichlorophenyl)-2-hydroxybenzamide] | 5 | 0.7 ± 0.13 µM | –
NC(=O)c1ccc(NC(=O)c2cc(Cl)ccc2O)cc1 [Compound 4, N-(4-carbamoylphenyl)-5-chloro-2-hydroxybenzamide] | 0 | > 12 µM | –
O=S(=O)(Nc1ccc(C(F)(F)F)cc1Cl)c1cc(Cl)ccc1O [Compound 58, 5-Chloro-N-(2-chloro-4-(trifluoromethyl)phenyl)-2-hydroxybenzenesulfonamide] | 1 | 2.57 ± 0.27 µM | Anti-proliferation activity, MTS assay, in words ([4]; HCT116, up to 10 μM): no effect
O=C(Nc1ccc(F)cc1)c1cc(Cl)ccc1O [Compound 19, 5-chloro-N-(4-fluorophenyl)-2-hydroxybenzamide] | 0 | 3.84 ± 0.29 µM | –

SMILES | Fzd1-GFP internalization @12.5 μM [1] | IC50 ([2]; Homo sapiens, HEK293, 8 h) | also measured
O=C(Nc1ccccc1)c1cc(Cl)ccc1O [Compound 1, 5-chloro-2-hydroxy-N-phenylbenzamide] | 0 | 11.8 µM | –
O=C(Nc1ccc(C(F)(F)F)cc1F)c1cc(Cl)ccc1O [Compound 10, 5-chloro-N-(2-fluoro-4-(trifluoromethyl)phenyl)-2-hydroxybenzamide] | 5 | 0.55 ± 0.11 µM | –
O=C(Nc1ccc(Cl)cc1)c1cc(Cl)ccc1O [Compound 11, 5-chloro-N-(4-chlorophenyl)-2-hydroxybenzamide] | 0 | 1.3 ± 0.18 µM | –
CC(=O)c1ccc(NC(=O)c2cc(Cl)ccc2O)cc1 [Compound 3, N-(4-acetylphenyl)-5-chloro-2-hydroxybenzamide] | 0 | 6.42 ± 0.51 µM | –
C#CCOc1cc(N=[N+]=[N-])ccc1NC(=O)c1cc(Cl)ccc1O [Compound 37, N-(4-azido-2-(prop-2-yn-1-yloxy)phenyl)-5-chloro-2-hydroxybenzamide] | – | – | inhibition at 2 µM ([2]; Homo sapiens, HEK293, 8 h): 40%
O=C(Nc1ccc(C(F)(F)F)cc1Br)c1cc(Cl)ccc1O [Compound 28, N-(2-bromo-4-(trifluoromethyl)phenyl)-5-chloro-2-hydroxybenzamide] | – | – | Inhibition Wnt/β-catenin transcription TopFlash, % inhibition @ 1 μM ([2]; 1 μM): 82% inhibition
O=C(Nc1ccc([N+](=O)[O-])cc1)c1cc(Cl)ccc1O [B, 5-chloro-2-hydroxy-N-(4-nitrophenyl)benzamide, reference compound] | – | – | IC50 [2]: > 12 µM
O=C(Nc1ccc([N+](=O)[O-])cc1)c1cc(Cl)ccc1O [Compound 2, 5-chloro-2-hydroxy-N-(4-nitrophenyl)benzamide] | 5 | – | IC50 [2]: 0.99 ± 0.32 µM
O=C(Nc1cccc(Cl)c1)c1cc(Cl)ccc1O [Compound 12, 5-chloro-N-(3-chlorophenyl)-2-hydroxybenzamide] | 5 | 1.65 ± 0.12 µM | –
COc1cc(O)c(C(=O)Nc2cccc(Cl)c2)cc1Cl [Compound 56, 5-chloro-N-(3-chlorophenyl)-2-hydroxy-4-methoxybenzamide] | – | – | Inhibition Wnt/β-catenin transcription TopFlash, result in words ([2]; up to 10 μM): No inhibition
COc1cc(NC(=O)c2cc(Cl)ccc2O)ccc1[N+](=O)[O-] [Compound 35, 5-chloro-2-hydroxy-N-(3-methoxy-4-nitrophenyl)benzamide] | – | – | inhibition at 10 µM ([2]; Homo sapiens, HEK293, 8 h): 40%
O=C(c1ccccc1)c1ccc(NC(=O)c2cc(Cl)ccc2O)cc1 [Compound 6, N-(4-benzoylphenyl)-5-chloro-2-hydroxybenzamide] | 0 | 15 µM | –
CCCC(CCC)C(=O)Oc1ccc(Cl)cc1C(=O)Nc1ccc([N+](=O)[O-])cc1Cl [Compound 66, 4-chloro-2-((2-chloro-4-nitrophenyl)carbamoyl)phenyl 2-propylpentanoate] | – | – | Inhibition Wnt/β-catenin transcription TopFlash, % inhibition @ 0.5 μM ([2]; 0.5 μM): 30% inhibition
O=C(Nc1ccc(C(F)(F)F)c(Cl)c1)c1cc(Cl)ccc1O [Compound 38, 5-chloro-N-(3-chloro-4-(trifluoromethyl)phenyl)-2-hydroxybenzamide] | – | – | inhibition at 2 µM ([2]; Homo sapiens, HEK293, 8 h): 90%
COc1cc(O)c(C(=O)Nc2ccc(F)cc2Cl)cc1Cl [Compound 55, 5-chloro-N-(2-chloro-4-fluorophenyl)-2-hydroxy-4-methoxybenzamide] | – | – | inhibition at 10 µM ([2]; Homo sapiens, HEK293, 8 h): 70%
CCCCCCC(=O)Oc1ccc(Cl)cc1C(=O)Nc1ccc([N+](=O)[O-])cc1Cl [Compound 63, 4-chloro-2-((2-chloro-4-nitrophenyl)carbamoyl)phenyl heptanoate] | – | 0.5 µM | –
